Data published in patent US20240002424A1, “HEXOSAMINE COMPOUNDS AND METHODS THEREOF” (National Institute of Immunology, priority 2021, published 2024).

How the values were obtained:
Format in all cases: cell-based, human
Jurkat cells [1] = test: GalNAz expression on the cell surface, co-incubation with Ac4GalNAz (3), DBCO-Cy5 flow cytometry; details: 50 μM co-incubated with 3 (50 μM)
Description: Effect of ManNAc analogues on NeuAz and GalNAz expression: Jurkat cells were incubated under various conditions, namely, (i) D, 1c, 3, 1a, or 1b alone, (ii) 1a or 1b in combination with 1c, (iii) 1a or 1b in combination with 3. After 24 h, cells were harvested, washed, labelled using DBCO-Cy5 ([…]), processed, and analysed by flow cytometry as mentioned above
The high degree of selectivity of ManNAc analogues for processing by the sialic acid biosynthetic pathway was further confirmed by competitive studies using Ac4GalNAz (3) which is known to be processed through both the mucin-type O-glycosylation (MTOG) and β-O-GlcNAc-ylation pathways. The expression of NeuAz by 1c was suppressed by 1a or 1b (50 μM) to an extent of 50% upon co-incubation. By contrast, no reduction in the expression of N-azidoacetyl-D-galactosamine (GalNAz) on the cell surface was noticed upon co-incubation of 3 (50 μM) with 1a or 1b (50 μM) (FIG. 6E and FIG. 7C).

HL-60 cells [2] = test: Far-western blot of total lysates with biotinylated SNA; details: HL-60 lysates; 50 μM, 72 h
Description: After 72 h, cells were harvested and lyzed in RIPA buffer containing PIC. Protein concentration in the soluble fraction was estimated using Bradford assay, subjected to 10% SDS-PAGE, blotted onto nitrocellulose membranes (constant current 250 mA, 3 h, 4° C.). Membranes were blocked using 2% w/v gelatin (5.0 mL) in 0.1% PBS-T at room temperature. After 1h, membranes were incubated with either bMAL-II (1:2000, stock conc. 1.0 mg/mL) or bSNA (1:5000, stock conc. 2.0 mg/mL) in 0.1% PBS-T (5.0 mL) at room temperature. After 1 h, membranes were washed using 0.1% PBS-T (6×5.0 mL, 5.0 min), followed by incubation with HRPconjugated avidin (1:50000, stock conc. 2.0 mg/mL) in 0.1% PBS-T (5.0 mL). After 30 min, membranes were washed using 0.1% PBS-T (6×5.0 mL, 5.0 min). Blots were developed using enhanced chemiluminescence substrate and photographic films. Blots using anti-β-actin (as mentioned above) were performed in parallel as loading controls. At least two independent replicate experiments were performed.

HL-60 cells [3] = test: Cell surface sialyl-Lewis-X (CD15s) by anti-CD15s (CSLEX1) flow cytometry; details: 50 μM, 24 h
Description: Effect of ManNAc analogues on the expression of sialyl-Lewis-X and Lewis-X: HL-60 cells (3.0×10^5 cells/mL in 2.0 mL complete medium in 6 well plate) were treated with D (vehicle), 1a, 1b, 1c, 1d, 1e, 1f, or 1g (50 PM), along with untreated (U) control. After 24 h, cells were harvested and washed with PBS (3×0.5 mL, 3000×g, 3.0 min at room temperature). Prior to last wash, cells were counted using Z2 coulter counter and aliquoted at 2.5×10^5 cells per sample and stained with either mouse anti-human CD15s (CSLEX1) (1.25 μg/mL) or mouse anti-human CD15 (HI98) (2.5 μg/mL) in HEPES/CaCl2) buffer (30 mM HEPES, 110 mM NaCl, 10 mM KCl, 2 mM MgCl2, 10 mM glucose, 1.5 mM CaCl2) containing 0.1% bovine serum albumin, pH 7.3) (total volume of 100 μL) for 30 min at 4° C. Cells were washed with HEPES/CaCl2 buffer (2×0.5 mL) and stained with AlexaFluor488-conjugated anti-mouse IgM (2.5 μg/mL) (for both CD15s and CD15) in 100 μL HEPES/CaCl2 for 30 min at 4° C. Cells were washed with HEPES/CaCl2 buffer (2×0.5 mL), resuspended in PBS (0.2 mL), treated with PI (2.5 μg/ml) and analysed by BD FACSVerse. Samples treated with (i) isotype antibodies followed by secondary antibody and (ii) secondary antibody alone were prepared as controls. Single Cells were gated for PI-negative population for 10,000 events and analysed by flow cytometry. Two replicate samples were prepared for each condition and each sample was counted twice. Three independent experiments were performed. Data was analysed using FlowJo V10. For plotting graph and calculation of significant probability ‘p’ values, two-way ANOVA with Dunnett's multiple comparison tests was employed in GraphPad Prism 8.
Time course of CD15s expression: HL-60 cells (3.0×10^5 cells/mL in 2.5 mL complete medium in 6-well plates) were incubated with D, 1a, 1b, or 1d (50 mM). At each time point, from day 1 to day 6, the cells were harvested from the entire contents of the well, washed, and aliquoted to 5.0×10^5 cells per sample, and immuno-stained using anti-CD15s (CSLEX1) antibody as mentioned above. On day 3, 4, and 5 complete media (1.0 mL) was added to each remaining well in order to compensate for media exhaustion. No contents were removed from the well during the period.

HL-60 cells [4] = test: MAL-II lectin binding on intact cells by flow cytometry; details: 50 μM, 24 h
Jurkat cells [5] = test: NeuAz expression on the cell surface by SPAAC with DBCO-Cy5 and flow cytometry, competition with Ac4ManNAz (1c); details: analogue 10 μM first, 1c 50 μM added at 12 h, estimation at 48 h
HL-60 cells [6] = test: Cell surface sialyl-Lewis-X (CD15s) by anti-CD15s (CSLEX1) flow cytometry

| Compound | reduction in expression of GalNAz on the cell surface (Jurkat cells [1]) | SNA epitopes in lectin blot compared to controls (HL-60 cells [2]) | increase in binding of CSLEX1 antibody (sLeX) compared to controls (HL-60 cells [3]) [fold] | MAL-II binding on intact cells compared to untreated cells (HL-60 cells [4]) | suppression of NeuAz expression, delayed addition of 1c (Jurkat cells [5]) [%] | increase in binding of CSLEX1 antibody (sLeX), in words (HL-60 cells [3]) | maximum increase in sLeX levels on day 2 (HL-60 cells [6]; single dosage 50 μM, day 2) [fold] | sLeX levels by day 6 (in words) (HL-60 cells [6]; single dosage 50 μM, day 6) | sLeX levels on day 6, fold higher (HL-60 cells [6]; single dosage 50 μM, day 6) | day of peak sLeX expression (HL-60 cells [6]; single dosage 50 μM, time course day 1 to day 6) [days] | change in sLeX levels in time course (in words) (HL-60 cells [6]; 50 μM, time course) |
| --- | --- | --- | --- | --- | --- | --- | --- | --- | --- | --- | --- |
| CC(=O)OC[C@H]1O[C@H](OC(C)=O)[C@@H](NC(=O)C2CC2)[C@@H](OC(C)=O)[C@@H]1OC(C)=O [Compound 1a, 1,3,4,6-tetra-O-acetyl-2-cyclopropanoylamino-2-deoxy-α-D-mannopyranose] | no reduction | significant reduction | ~2.5 | significant gain | 30 |  |  |  |  |  |  |
| CC(=O)OC[C@H]1OC(OC(C)=O)[C@@H](NC(=O)C2CCC2)[C@@H](OC(C)=O)[C@@H]1OC(C)=O (stereo partly drawn) [Compound 1b, (3S,4R,5S,6R)-6-(acetoxymethyl)-3-(cyclobutanecarboxamido)tetrahydro-2H-pyran-2,4,5-triyl triacetate] | no reduction | significant reduction |  | significant gain | 50 | nearly a four-fold increase | 3.0 | returned to normal levels | approximately 2.3 fold | 2 |  |
| CC(=O)NC1C(OC(C)=O)OC(COC(C)=O)[C@@H](OC(C)=O)[C@@H]1OC(C)=O (stereo partly drawn) [Compound 1d, 1,3,4,6-tetra-O-acetyl-2-acetylamino-2-deoxy-α/β-D-mannopyranose] |  |  |  |  |  |  |  |  |  |  | no change |
